According to PMC10279527, “Structural basis of metabolite transport by the chloroplast outer envelope channel OEP21” (Nature Structural & Molecular Biology, 2023):
Several values for one entry are separate records, joined by “and”; a condition that tells them apart may be missing. Equal entries are not always repeated. Where two headings read alike, the source gives them in different places.

What was measured:
[1] = target: T1, OEP21 wt (Pisum sativum, UniProt Q9SM57); test: Fluorescence polarization (FP) binding of MANT-ATP (or MANT-GMPPNP) to OEP21-WT, also at varied NaCl and MgCl2; design: species or system garden pea
T1 construct: made in house
Procedure: (§1) FP assays were performed on a spectrofluorometer FP-8300 (Jasco) equipped with a water bath cooling system MCM-100 (Jasco). […] A buffer containing no EDTA was used when MgCl2 was present. […] KD values were derived by fitting the data to a one-site binding model. […] All FP experiments were performed as triplicates.

[2] = target: OmpX (Escherichia coli, UniProt P0A917); test: 2D NMR control with OmpX in LDAO micelles; design: species or system bacterial; conditions: up to 5 mM GAP; control for nonspecific binding
Procedure: (§2) (a) (left) 2D-[^15N,^1H]-TROSY NMR spectra of 400 µM ^2H,^15N-labeled OmpX in LDAO micelles in 20 mM sodium phosphate, pH6.0, 50 mM NaCl, 0.5 mM EDTA and the indicated concentrations of D-GAP at 30 °C and 1.2 GHz magnetic field. (right) 2D-projections along the ^1H dimension of the 2D-spectra shown on (left). […] (right) Relative NMR peak intensities derived from the data in (left) and (middle). Buffer: 10 mM Na-phosphate pH7.0, 20 mM NaCl, 7% (v/v) D2O. […] (right) 150 mM MgCl2 was titrated into 15 mM potassium phosphate (Pi). Buffer conditions for all experiments were: 10 mM HEPES pH7.0, 20 mM NaCl.

[3] = target: T2, OEP21 (Pisum sativum, UniProt Q9SM57); test: Trypsin cleavage of recombinant OEP21 in liposomes; design: made in house; species or system garden pea; conditions: 10 µM OEP21 in liposomes; 5 mM metabolite
Procedure: Sample aliquots were quenched by addition of 1 mM PMSF at the indicated time points and were analyzed by SDS–PAGE.

[4] = target: T1, OEP21 wt; test: SEC metabolite translocation assay with OEP21 WT proteoliposomes;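 for all read-outs here: control is liposomes reconstituted without protein, prepared alongside. Molecule content inside liposomes measured after Triton X-100 disruption. PD10 SEC runs done with or without ATP and/or MgCl2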; type: biochemical, garden pea; conditions: for Relative content (% of mean Control): Fig. 4f, WT proteoliposomes, molecules of increasing molecular weight
[5] = target: T1, OEP21 wt; test: FP competition with preformed MANT-ATP/OEP21-WT complex; type: binding, garden pea
Procedure: as §1

[6] = target: T3, OEP21ΔL5 (Pisum sativum, UniProt Q9SM57, DEL70-80); test: FP competition with preformed MANT-ATP/OEP21ΔL5 complex; type: binding, garden pea
T3 construct: made in house; host or cells: Escherichia coli BL21(DE3) (described for OEP21)
Procedure: as §1

[7] = target: T2, OEP21; test: Amide hydrogen exchange NMR (CLEANEX) of OEP21 L5; design: made in house; species or system garden pea; conditions: 2 mM ATP or 5 mM GAP; 303 K, pH 6.0
[8] = ITC of ATP, GAP or phosphate with magnesium; type: binding; conditions: 10 mM HEPES pH7.0, 20 mM NaCl, read-out: KD for Mg^2+
Procedure: ITC experiments were performed with a MicroCal PEAQ-ITC instrument (Malvern Panalytical) at 25 °C in 10 mM HEPES pH 7.0, 20 mM NaCl, 0.5 mM EDTA, 1 mM DTT, 50 mM LDAO. […] Curve fitting and data analysis were done with the Malvern PEAQ-ITC software.
as §2

Question: Which results are given for “2′-(or-3′)-O-(N-methylanthraniloyl) adenosine 5′-triphosphate [Mant-ATP]”?
Answer: Kd ([1]; MgCl2 0 mM, individual determinations, read-out: KD1-KD3): 184 nM and 169 nM and 193 nM; Kd ([1]; MgCl2 0 mM, read-out: mean KD): 182 nM; rel KD1-KD3 ([1]; MgCl2 0 mM, relative to mean KD at 0 mM MgCl2): 1.011 and 0.9286 and 1.06; Kd ([1]; MgCl2 1 mM, individual determinations, read-out: KD1-KD3): 442 nM and 659 nM and 1020 nM; Kd ([1]; MgCl2 1 mM, read-out: mean KD): 706 nM; Kd ([1]; MgCl2 10 mM, individual determinations, read-out: KD1-KD3): 1170 nM and 2680 nM and 2400 nM; Kd ([1]; MgCl2 10 mM, read-out: mean KD): 2080 nM; Kd ([1]; MgCl2 50 mM, individual determinations, read-out: KD1-KD3): 6430 nM and 8880 nM and 8630 nM; Kd ([1]; MgCl2 50 mM, read-out: mean KD): 7980 nM; rel KD1-KD3 ([1]; MgCl2 50 mM, relative to mean KD at 0 mM MgCl2): 35.3077 and 48.8077 and 47.4286; Kd ([1]; NaCl 0 M, individual determinations, nM printed only in the MgCl2 head (r11) of this sheet, read-out: KD1-KD3): 184 nM and 169 nM and 193 nM; Kd ([1]; NaCl 0 M, read-out: mean KD): 182 nM; rel KD1-KD3 ([1]; NaCl 0 M, relative to mean KD at 0 M NaCl): 1.011 and 0.9286 and 1.06; Kd ([1]; NaCl 0.5 M, individual determinations, nM, read-out: KD1-KD3): 241 nM and 192 nM and 264 nM; Kd ([1]; NaCl 0.5 M, read-out: mean KD): 232 nM; rel KD1-KD3 ([1]; NaCl 0.5 M, relative to mean KD at 0 M NaCl): 1.324 and 1.055 and 1.451; Kd ([1]; NaCl 1 M, individual determinations, nM, read-out: KD1-KD3): 2600 nM and 2460 nM and 3130 nM; Kd ([1]; NaCl 1 M, read-out: mean KD): 2730 nM; rel KD1-KD3 ([1]; NaCl 1 M, relative to mean KD at 0 M NaCl): 14.2912 and 13.5385 and 17.1923; Kd ([1]; NaCl 2 M, individual determinations, nM, read-out: KD1-KD3): 18.4 µM and 21.4 µM (2×); Kd ([1]; NaCl 2 M, read-out: mean KD): 20400 nM; rel KD1-KD3 ([1]; NaCl 2 M, relative to mean KD at 0 M NaCl): 101.319 and 117.56 and 117.418; Kd ([1]; OEP21 wt, individual determinations, unit inferred, read-out: KD1-KD3): 184 nM and 169 nM and 193 nM; rel KD1-KD3 ([1]; OEP21 wt, relative to mean KD of wt): 1.011 and 0.9286 and 1.06; Kd ([1]; OEP21 wt, unit inferred, read-out: mean KD): 182 nM

Question: Which results are given for `O=C[C@H](O)COP(=O)(O)O` [GAP, D-glyceraldehyde-3-phosphate]?
Answer: effect on 2D-NMR spectra of OmpX (in words) [2]: did not observe any effect; effect on trypsin digestion of L5 (in words) [3]: slightly protected L5 from proteolytic digestion; Relative GAP content (% of mean Control) ([4]; ED Fig. 10a, WT 0.05uM, Mean): 95.6446 % of mean Control; Relative GAP content (% of mean Control) ([4]; ED Fig. 10a, WT 0.5uM, Mean): 62.4352 % of mean Control; Relative GAP content (% of mean Control) ([4]; ED Fig. 10a, WT 5uM, Mean): 38.701 % of mean Control; Relative GAP content (% of mean Control) ([4]; ED Fig. 10b, +ATP (2 mM per legend), OEP21 0.05uM, Mean): 91.3817 % of mean Control; Relative GAP content (% of mean Control) ([4]; ED Fig. 10b, +ATP (2 mM per legend), OEP21 0.5uM, Mean): 64.3295 % of mean Control; Relative GAP content (% of mean Control) ([4]; ED Fig. 10b, +ATP (2 mM per legend), OEP21 5uM, Mean): 54.5372 % of mean Control; Relative GAP content (% of mean Control) ([4]; ED Fig. 10c, WT, 0.05M NaCl, Mean): 38.1976 % of mean Control; Relative GAP content (% of mean Control) ([4]; ED Fig. 10c, WT, 1M NaCl, Mean): 59.8192 % of mean Control; Relative GAP content (% of mean Control) ([4]; ED Fig. 10c, WT, […] NaCl, Mean): 46.186 % of mean Control; Relative content (% of mean Control) ([4]; Mean): 48.3557 % of mean Control; Relative content (% of mean Control) ([4]; single replicates): 46.601 % of mean Control and 48.0754 % of mean Control and 50.3906 % of mean Control; Relative GAP content (% of mean Control) ([4]; Fig. 4d, WT, 5mM ATP, Mean): 40.9262 % of mean Control; Relative GAP content (% of mean Control) ([4]; Fig. 4d, WT, 10mM MgCl2+5mM ATP, Mean): 54.2808 % of mean Control; Relative GAP content (% of mean Control) ([4]; Fig. 4d, WT, 10mM MgCl2, Mean): 63.8331 % of mean Control; passage through the OEP21 channel (in words) ([4]; proteoliposomes, SEC, deadtime ~4 min): passed through the channel; IC50 ([5]; IC50 (dissociation of MANT-ATP), OEP21-WT, 1 µM MANT-ATP, 1 µM protein): ~10000 µM; IC50 ([5]; IC50, wt, individual determinations): 11000 µM and 10700 µM; IC50 ([5]; mean IC50, wt): 10900 µM; IC50 ([6]; IC50 (dissociation of MANT-ATP), OEP21ΔL5, 1 µM MANT-ATP, 1 µM protein): ~26000 µM; IC50 ([6]; dL5, individual determinations, read-out: IC50): 31100 µM and 20400 µM; IC50 ([6]; dL5, read-out: mean IC50): 25700 µM; amide hydrogen exchange rates in L5 in the complex (in words) [7]: reduced; Kd [8]: ~9000 µM and 9000 µM
